According to ChEMBL document CHEMBL1201862, “PubChem BioAssay data set” (2004):
Counter-ions that a name gives are not always drawn. Calls of active or inactive are those of the source.

Key:
[1] = test system: HEK293; experiment: cells; conditions: Homo sapiens
[2] = molecular target: T1, Sphingosine 1-phosphate receptor 4 (Homo sapiens, UniProt O95977); experiment: Fluorescence dose response cell-based high throughput screening assay for antagonists of the Sphingosine 1-Phosphate Receptor 4 (S1P4). [Related pubchem assays: 1524 (Confirmation in triplicates.), 1510 (Primary screen.)]; type: functional
T1 sequence (O95977 whole entry): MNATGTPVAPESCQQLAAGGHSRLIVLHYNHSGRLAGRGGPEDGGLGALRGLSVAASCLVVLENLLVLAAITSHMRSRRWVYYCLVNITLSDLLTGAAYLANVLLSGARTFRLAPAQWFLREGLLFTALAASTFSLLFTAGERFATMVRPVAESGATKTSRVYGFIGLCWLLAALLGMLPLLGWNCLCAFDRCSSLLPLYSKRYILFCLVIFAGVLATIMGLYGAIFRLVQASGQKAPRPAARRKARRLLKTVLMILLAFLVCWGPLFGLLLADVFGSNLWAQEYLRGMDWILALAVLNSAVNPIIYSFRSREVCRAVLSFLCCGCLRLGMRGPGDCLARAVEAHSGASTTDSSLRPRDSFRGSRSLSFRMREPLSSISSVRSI

[3] = molecular target: Beta Lactamase (Pseudomonas aeruginosa, UniProt Q932Y6); experiment: BLA reporter interference, concentration series – BLA reporter cells, FRET fluorescence, artefact control for NOD2-RIPK2 interaction inhibitor project, dose response (AID 651552); type: functional, cell-based
Beta Lactamase, sequence (Q932Y6 whole entry, the tested form may be a part): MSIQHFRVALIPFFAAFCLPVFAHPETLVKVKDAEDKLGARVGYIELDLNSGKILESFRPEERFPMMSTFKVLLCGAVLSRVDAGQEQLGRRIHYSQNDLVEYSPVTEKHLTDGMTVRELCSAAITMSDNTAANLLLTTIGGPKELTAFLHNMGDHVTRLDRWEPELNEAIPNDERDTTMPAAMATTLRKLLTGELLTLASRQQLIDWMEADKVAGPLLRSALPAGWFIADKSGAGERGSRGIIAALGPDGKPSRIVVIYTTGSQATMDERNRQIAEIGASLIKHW

[4] = Fluorescence-based cell-based high throughput dose response assay for inhibitors of the interaction of nucleotide-binding oligomerization domain containing 2 (NOD2) and the receptor-interacting serine-threonine kinase 2 (RIPK2).; type: functional; conditions: Homo sapiens
[5] = molecular target: Sphingosine 1-phosphate receptor 1 (Homo sapiens, UniProt P21453); type: functional;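 note: Tango beta-arrestin reporter U2OS cells stimulated with S1P near its EC80; inhibitor potency meaning antagonism of receptor activation by the natural agonist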
Sphingosine 1-phosphate receptor 1, sequence (P21453 whole entry): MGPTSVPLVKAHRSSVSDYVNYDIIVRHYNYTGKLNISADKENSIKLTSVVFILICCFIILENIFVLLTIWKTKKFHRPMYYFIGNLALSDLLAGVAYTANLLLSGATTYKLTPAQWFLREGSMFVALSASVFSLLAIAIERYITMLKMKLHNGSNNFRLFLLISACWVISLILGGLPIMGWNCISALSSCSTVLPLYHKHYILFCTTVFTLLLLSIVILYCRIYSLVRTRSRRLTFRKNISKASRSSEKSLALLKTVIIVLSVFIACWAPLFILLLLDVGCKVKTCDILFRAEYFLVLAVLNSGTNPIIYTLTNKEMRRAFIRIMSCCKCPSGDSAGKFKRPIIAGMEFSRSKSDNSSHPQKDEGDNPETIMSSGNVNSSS

[6] = test system: HEK293; experiment: cells; conditions: Homo sapiens; remark: listed apart in the source
[7] = test system: INS1; experiment: INS-1E survival protection against cytokine death – cell-based, luminescence, retest, dose response (AID 449756); type: functional; conditions: Rattus norvegicus;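 note: cell death triggered by IL-1 beta plus TNF-alpha plus IFN-gamma mixture; protective hits raise ATP signal compared with cytokine alone wells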
[8] = Vero E6 cell cytotoxicity, dose response, cytotoxicity control for non-replicating M. tuberculosis project, secondary assay (AID 492998); type: functional, VeroE6; conditions: Vero C1008
[9] = loss of viability in HepG2 cells – cell-based, CellTiter-Glo, cherry-picked, cytotoxicity control for Shn3 inhibitor project, dose response (AID 624134); type: functional
[10] = cells; type: functional
[11] = molecular target: T2, Replicative DNA helicase DnaB (Mycobacterium tuberculosis, UniProt P9WMR3); experiment: DnaB intein splicing inhibitors, dose response, biochemical, cell-free fluorescence (AID 449749); type: functional
T2 sequence (P9WMR3 whole entry): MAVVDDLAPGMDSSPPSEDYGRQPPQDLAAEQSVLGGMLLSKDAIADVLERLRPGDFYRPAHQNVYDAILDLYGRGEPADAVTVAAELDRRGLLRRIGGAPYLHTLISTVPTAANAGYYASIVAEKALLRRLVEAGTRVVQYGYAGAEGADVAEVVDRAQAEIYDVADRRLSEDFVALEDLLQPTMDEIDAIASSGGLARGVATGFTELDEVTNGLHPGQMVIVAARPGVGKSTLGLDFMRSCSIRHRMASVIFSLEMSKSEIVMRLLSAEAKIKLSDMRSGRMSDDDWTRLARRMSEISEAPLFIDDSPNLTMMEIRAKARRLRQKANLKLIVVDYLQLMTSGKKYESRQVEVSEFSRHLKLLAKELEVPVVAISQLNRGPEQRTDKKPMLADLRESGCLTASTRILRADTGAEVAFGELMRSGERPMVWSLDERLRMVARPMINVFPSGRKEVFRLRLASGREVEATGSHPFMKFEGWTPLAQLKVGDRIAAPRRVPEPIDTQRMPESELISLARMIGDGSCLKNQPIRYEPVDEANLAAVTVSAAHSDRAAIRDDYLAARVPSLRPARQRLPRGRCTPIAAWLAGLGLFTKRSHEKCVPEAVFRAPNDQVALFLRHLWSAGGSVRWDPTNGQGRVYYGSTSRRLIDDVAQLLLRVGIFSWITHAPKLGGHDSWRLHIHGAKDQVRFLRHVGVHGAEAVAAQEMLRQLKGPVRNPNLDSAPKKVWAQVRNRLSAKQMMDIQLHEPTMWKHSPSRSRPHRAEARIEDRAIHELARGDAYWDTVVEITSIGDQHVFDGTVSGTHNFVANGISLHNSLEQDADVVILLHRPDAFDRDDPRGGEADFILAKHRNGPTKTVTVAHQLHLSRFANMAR

[12] = molecular target: T3, Protein RecA (Mycobacterium tuberculosis, UniProt P9WHJ3); experiment: Fluorescence Cell-Free Homogeneous Dose Retest to Identify Inhibitors of RecA-Intein Splicing Activity. [Related pubchem assays (depositor defined):AID2097, AID2223, AID489010, AID492950]; type: functional
T3 sequence (P9WHJ3 whole entry): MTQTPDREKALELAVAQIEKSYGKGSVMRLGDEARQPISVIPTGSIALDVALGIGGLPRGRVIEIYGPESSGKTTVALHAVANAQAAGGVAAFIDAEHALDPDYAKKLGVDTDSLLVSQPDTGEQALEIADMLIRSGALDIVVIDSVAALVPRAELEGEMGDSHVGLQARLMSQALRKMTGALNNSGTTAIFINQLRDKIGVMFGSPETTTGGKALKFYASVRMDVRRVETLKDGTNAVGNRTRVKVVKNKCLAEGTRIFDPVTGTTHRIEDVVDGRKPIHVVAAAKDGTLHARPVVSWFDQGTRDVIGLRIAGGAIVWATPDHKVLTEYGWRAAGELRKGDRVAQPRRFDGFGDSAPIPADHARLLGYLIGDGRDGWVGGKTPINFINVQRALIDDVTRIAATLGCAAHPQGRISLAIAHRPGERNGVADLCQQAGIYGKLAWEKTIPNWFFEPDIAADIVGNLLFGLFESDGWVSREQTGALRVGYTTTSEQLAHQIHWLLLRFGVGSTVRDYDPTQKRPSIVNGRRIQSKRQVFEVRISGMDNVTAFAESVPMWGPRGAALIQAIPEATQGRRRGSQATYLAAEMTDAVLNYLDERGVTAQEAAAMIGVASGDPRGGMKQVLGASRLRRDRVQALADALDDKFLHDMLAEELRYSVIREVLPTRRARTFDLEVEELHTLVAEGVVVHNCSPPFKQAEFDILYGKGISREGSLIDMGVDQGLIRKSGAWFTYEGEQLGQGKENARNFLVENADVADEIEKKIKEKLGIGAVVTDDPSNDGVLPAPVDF

[13] = THP-1 cell cytotoxicity, dose response, cytotoxicity control for non-replicating M. tuberculosis project (AID 489025); type: functional
[14] = HepG2 cell cytotoxicity, dose response, cytotoxicity control for non-replicating M. tuberculosis project (AID 489018); type: functional; conditions: Mycobacterium tuberculosis
[15] = reduction of Shn3 3'UTR-driven luciferase in osteoblasts – cell-based, Clone20 osteoblasts, firefly luciferase, cherry-picked, dose response (AID 624132); type: functional;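 note: firefly luciferase luminescence from reporter carrying the Shn3 3'UTR in osteoblasts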
[16] = non-specific 3'UTR reporter inhibition in Clone20-Shn3RL – cell-based, Renilla luciferase, cherry-picked, counter-screen for Shn3 inhibitor project, dose response (AID 624133); type: functional
[17] = Counterscreen for inhibitors of Trypanosoma brucei methionyl tRNA synthetase (MetRS): Luminescence-based cell-based high throughput dose response assay to identify compounds that are cytotoxic to Jurkat human T lymphocyte cells.; type: functional
[18] = test system: H9c2; experiment: cells; type: functional, cell-based; conditions: Rattus norvegicus, H9c2, Myocardium;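 note: confirmatory concentration-response retest of ultra-high-throughput screening hits for modulation of myocardial damage; cell death induced by hydrogen peroxide oxidative stress; compound pretreatment for 60 min then peroxide exposure for 2 h; potency is for protecting the cells against peroxide damage rather than for killing them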
[19] = molecular target: Arf-GAP with SH3 domain, ANK repeat and PH domain-containing protein 1 (Homo sapiens, UniProt Q9ULH1); type: functional;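 note: biochemical fluorescence polarization dose–response screen measuring inhibition of ASAP1; ASAP1 GAP domain stimulating GTP hydrolysis by truncated human ARF1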
Arf-GAP with SH3 domain, ANK repeat and PH domain-containing protein 1, sequence (Q9ULH1 whole entry, the tested form may be a part): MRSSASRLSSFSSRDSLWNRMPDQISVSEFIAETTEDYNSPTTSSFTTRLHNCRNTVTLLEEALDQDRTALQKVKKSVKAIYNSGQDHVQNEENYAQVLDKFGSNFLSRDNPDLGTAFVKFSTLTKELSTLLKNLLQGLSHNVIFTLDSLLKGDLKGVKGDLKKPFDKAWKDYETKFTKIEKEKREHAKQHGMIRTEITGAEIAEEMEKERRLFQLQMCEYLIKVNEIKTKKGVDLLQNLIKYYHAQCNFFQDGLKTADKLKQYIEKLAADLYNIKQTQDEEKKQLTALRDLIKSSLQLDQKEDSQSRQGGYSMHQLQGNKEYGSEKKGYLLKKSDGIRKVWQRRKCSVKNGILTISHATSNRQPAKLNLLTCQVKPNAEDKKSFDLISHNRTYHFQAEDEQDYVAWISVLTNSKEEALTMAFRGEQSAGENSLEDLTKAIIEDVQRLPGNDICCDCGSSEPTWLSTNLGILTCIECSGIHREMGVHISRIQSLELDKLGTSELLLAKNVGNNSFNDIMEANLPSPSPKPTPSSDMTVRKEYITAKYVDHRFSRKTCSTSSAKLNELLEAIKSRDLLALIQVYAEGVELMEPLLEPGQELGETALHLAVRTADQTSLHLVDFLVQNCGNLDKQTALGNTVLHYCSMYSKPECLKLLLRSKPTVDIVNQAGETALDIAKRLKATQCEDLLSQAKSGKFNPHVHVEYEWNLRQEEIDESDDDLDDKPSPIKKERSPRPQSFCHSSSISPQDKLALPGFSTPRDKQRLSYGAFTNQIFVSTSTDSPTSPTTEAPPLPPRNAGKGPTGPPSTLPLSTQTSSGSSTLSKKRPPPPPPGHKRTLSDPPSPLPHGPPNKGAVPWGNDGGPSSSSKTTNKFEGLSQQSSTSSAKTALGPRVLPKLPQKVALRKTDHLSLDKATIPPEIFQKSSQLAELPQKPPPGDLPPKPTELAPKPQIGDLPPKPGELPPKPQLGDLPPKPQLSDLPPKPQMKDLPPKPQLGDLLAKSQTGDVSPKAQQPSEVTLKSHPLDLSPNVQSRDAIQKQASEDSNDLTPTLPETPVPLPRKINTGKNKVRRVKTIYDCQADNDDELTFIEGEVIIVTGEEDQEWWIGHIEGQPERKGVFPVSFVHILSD

[20] = molecular target: T4, Leucine aminopeptidase (Plasmodium falciparum 3D7, UniProt Q8IL11); experiment: P. falciparum M17LAP inhibitors, primary screen, biochemical, fluorogenic H-Leu-NHMec substrate, 1536-well (AID 1619); type: functional
T4 sequence (Q8IL11 whole entry): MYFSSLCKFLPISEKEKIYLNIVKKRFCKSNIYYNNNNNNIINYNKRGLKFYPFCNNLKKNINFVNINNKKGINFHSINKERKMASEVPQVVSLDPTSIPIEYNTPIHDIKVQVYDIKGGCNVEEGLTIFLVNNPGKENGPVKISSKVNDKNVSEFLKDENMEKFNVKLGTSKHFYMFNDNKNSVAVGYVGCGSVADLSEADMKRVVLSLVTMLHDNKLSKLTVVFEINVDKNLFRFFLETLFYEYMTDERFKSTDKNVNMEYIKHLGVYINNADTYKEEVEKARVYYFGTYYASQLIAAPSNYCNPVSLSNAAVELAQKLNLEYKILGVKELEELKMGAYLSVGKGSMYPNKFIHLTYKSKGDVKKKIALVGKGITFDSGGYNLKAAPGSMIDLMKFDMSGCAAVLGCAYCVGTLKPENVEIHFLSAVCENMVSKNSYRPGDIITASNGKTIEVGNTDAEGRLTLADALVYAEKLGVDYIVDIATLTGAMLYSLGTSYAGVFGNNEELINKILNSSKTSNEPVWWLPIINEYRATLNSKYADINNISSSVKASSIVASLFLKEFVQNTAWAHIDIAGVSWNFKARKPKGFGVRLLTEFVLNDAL

[21] = molecular target: T5, Sentrin-specific protease 8 (Homo sapiens, UniProt Q96LD8); type: functional
T5 sequence (Q96LD8 whole entry): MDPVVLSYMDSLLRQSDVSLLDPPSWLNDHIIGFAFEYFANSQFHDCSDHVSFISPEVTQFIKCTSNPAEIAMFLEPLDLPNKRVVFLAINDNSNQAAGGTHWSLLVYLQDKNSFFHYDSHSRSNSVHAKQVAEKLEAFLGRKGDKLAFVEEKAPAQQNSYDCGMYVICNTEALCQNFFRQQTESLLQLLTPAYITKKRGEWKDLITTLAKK

[22] = Luminescence Cell-Based Dose Confirmation HTS to Identify Activators of 5'UTR Stem-Loop Driven Alpha-Synuclein mRNA Translation in H4 Neuroglioblastoma Cells. [Related pubchem assays: 1829 (Project Summary), 1814 (Primary HTS)]; type: functional
[23] = test system: H4; experiment: Luminescence Cell-Based Dose Response HTS to Identify Activators of 5'UTR Stem-Loop Driven Prion Protein mRNA Translation in H4 Neuroglioblastoma Cells. [Related pubchem assays: 1829 (Project Summary), 1814 (Primary HTS)]; type: functional; conditions: Homo sapiens
[24] = Luminescence Cell-Based Dose Response HTS to Identify Activators of Luciferase Translation or Activity in H4 […] Cells. [Related pubchem assays: 1829 (Project Summary), 1814 (Primary HTS)]; type: functional
[25] = molecular target: T6, Aryl hydrocarbon receptor (Homo sapiens, UniProt P35869); experiment: Luminescence-based cell-based high throughput dose response assay for activators of the Aryl Hydrocarbon Receptor (AHR). [Related pubchem assays: 2796 (Primary screen (AHR activators in singlicate)), 2845 (Confirmation screen (AHR activators in triplicate)), 434939 (Counterscreen (PXR activators in triplicate)), 2804 (Summary (AHR activators))]; type: ADME
T6 sequence (P35869 whole entry): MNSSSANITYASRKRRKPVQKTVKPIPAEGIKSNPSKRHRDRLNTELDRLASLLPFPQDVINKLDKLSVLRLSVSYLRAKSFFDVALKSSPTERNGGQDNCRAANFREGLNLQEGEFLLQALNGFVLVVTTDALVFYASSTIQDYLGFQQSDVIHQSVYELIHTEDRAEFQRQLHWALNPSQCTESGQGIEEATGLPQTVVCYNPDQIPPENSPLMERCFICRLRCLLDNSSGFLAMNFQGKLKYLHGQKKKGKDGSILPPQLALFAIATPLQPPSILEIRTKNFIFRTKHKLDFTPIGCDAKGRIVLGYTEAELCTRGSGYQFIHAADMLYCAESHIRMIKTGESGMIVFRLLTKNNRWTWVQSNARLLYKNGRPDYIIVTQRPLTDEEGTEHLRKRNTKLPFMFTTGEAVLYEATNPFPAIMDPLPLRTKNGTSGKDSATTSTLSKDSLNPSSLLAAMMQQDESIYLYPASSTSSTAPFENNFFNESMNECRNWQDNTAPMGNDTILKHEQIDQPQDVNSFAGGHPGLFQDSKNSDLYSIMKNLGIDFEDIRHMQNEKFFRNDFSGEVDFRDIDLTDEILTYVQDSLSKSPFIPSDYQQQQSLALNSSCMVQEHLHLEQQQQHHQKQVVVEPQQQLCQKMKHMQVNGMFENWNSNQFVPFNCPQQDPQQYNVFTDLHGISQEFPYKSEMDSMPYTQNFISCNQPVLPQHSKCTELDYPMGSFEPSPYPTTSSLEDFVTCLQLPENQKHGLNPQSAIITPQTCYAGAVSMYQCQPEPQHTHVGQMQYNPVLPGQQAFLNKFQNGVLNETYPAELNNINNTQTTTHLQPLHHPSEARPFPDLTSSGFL

[26] = molecular target: T5, Sentrin-specific protease 8; type: functional; remark: listed apart in the source
[27] = molecular target: Mu-type opioid receptor (Homo sapiens, UniProt P35372); type: functional, cell-based;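 note: U2OS cells with beta-arrestin recruitment to OPRM1 by beta-gal complementation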
Mu-type opioid receptor, sequence (P35372 whole entry): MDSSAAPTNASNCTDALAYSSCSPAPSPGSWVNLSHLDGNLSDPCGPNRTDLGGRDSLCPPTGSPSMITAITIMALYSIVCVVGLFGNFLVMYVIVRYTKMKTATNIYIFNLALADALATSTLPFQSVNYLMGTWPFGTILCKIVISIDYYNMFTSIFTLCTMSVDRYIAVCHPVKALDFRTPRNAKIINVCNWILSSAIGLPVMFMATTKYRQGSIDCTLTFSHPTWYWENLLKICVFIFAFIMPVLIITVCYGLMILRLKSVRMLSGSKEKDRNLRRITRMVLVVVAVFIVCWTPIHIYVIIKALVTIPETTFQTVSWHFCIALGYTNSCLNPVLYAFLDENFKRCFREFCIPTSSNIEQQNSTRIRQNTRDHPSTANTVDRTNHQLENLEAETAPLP

CC1=NNC(=O)/C1=C\c1cn(-c2ccccc2)nc1-c1ccccc1
EC50 [1]: > 59.7 µM (inactive)
IC50 [2]: 2 µM (active)
IC50 [3]: 49.8 µM (inactive)
IC50 [4]: 4.43 µM (active)
IC50 [5]: 6.83 µM (active)
EC50 [6]: > 59.7 µM (inactive)
AC50 [7]: 7.76 µM (active)
CC50 [8]: 10.1 µM (active)
AC50 [9]: 8.9 µM (active)
IC50 [10]: 20.6 µM (active)
AC50 [11]: 1.92 µM (active)
EC50 [12]: 0.978 µM (active)
CC50 [13]: 6.16 µM (active)
CC50 [14]: 13 µM (active)
AC50 [15]: 8.42 µM (active)
AC50 [16]: 9.3 µM (active)

N#Cc1ccccc1CSc1nc2cc(Br)c[nH]c-2n1
IC50 [17]: 83.3 µM (inactive)

c1ccc(-c2cc(-c3nnc4sc(-c5ccccn5)nn34)[nH]n2)cc1
IC50 [18]: > 79 µM (inactive)
IC50 [19]: 165 µM (inactive)

Cc1ccc(NC(=O)CSc2ncccc2C(=O)Oc2cccc([N+](=O)[O-])c2)cc1Cl
IC50 [20]: 32 µM (active)
IC50 [19]: 45.7 µM (inactive)

O=C1c2ccccc2-c2nc3ccccc3nc21
IC50 [21]: 5.17 µM (active)
EC50 [22]: 0.307 µM (active)
EC50 [23]: > 120 µM (not active)
EC50 [24]: 42.2 µM (active)
EC50 [25]: 1.22 µM (active)
IC50 [26]: 8.84 µM (active)

CC(C)[C@@]1(NC(=O)[C@@H]2C[C@@H]3c4cccc5[nH]cc(c45)C[C@H]3N(C)C2)O[C@@]2(O)[C@@H]3CCCN3C(=O)[C@H](Cc3ccccc3)N2C1=O [DIHYDROERGOCRISTINE MESYLATE]
EC50 [27]: 92.5 µM (inactive)
